Test results reported in patent publication US20080269266A1, “NOVEL COMPOUNDS 747” (ASTRAZENECA AB, priority 2007, published 2008).
Converted amounts (≈) assume the structure as drawn.

Experiments:
human IGF1R = target: T1, human IGF1R (Homo sapiens, UniProt P08069); assay: Inhibition of Insulin-Like Growth Factor-1 Receptor Phosphorylation in R+ cells; type: cell-based; conditions: median; R+ cells stimulated with 30 nM IGF1
T1 construct: expressed in transfected cells; host or cells: R+ cells (R- mouse fibroblasts transfected with human IGF1R)
T1 sequence (P08069 31-1367): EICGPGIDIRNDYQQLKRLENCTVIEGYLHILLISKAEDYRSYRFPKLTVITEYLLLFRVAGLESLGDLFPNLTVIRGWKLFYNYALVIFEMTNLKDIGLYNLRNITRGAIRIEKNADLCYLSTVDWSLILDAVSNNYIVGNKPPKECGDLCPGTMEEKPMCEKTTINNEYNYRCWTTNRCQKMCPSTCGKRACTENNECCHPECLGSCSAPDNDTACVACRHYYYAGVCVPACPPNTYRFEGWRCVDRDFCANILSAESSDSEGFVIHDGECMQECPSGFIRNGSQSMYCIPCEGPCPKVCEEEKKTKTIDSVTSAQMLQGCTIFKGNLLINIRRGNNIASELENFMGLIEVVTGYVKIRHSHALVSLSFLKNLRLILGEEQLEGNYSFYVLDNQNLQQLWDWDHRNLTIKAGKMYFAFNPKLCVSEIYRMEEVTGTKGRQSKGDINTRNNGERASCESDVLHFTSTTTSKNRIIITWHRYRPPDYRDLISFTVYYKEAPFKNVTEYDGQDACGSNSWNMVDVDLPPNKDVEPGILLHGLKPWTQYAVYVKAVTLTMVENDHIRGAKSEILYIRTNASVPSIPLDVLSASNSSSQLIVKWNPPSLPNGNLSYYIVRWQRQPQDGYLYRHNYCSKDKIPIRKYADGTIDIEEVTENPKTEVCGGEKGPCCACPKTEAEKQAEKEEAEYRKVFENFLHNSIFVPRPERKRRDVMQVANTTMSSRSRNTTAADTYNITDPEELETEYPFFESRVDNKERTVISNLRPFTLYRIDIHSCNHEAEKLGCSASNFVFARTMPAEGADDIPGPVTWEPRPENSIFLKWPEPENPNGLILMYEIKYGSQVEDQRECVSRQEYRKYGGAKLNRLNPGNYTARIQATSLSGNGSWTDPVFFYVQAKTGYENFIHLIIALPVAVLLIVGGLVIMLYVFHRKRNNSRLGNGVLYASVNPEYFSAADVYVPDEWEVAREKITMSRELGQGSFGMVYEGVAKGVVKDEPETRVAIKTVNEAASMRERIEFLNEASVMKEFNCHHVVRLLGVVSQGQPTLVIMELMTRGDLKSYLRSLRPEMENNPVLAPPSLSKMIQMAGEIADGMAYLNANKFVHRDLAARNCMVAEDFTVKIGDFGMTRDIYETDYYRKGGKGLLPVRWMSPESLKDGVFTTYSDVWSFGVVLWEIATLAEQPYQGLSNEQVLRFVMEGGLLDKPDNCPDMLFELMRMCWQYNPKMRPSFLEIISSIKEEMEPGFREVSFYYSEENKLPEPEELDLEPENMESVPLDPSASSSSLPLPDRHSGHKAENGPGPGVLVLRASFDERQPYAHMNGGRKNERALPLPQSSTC
Method: This immunofluorescence end point cell assay measures the ability of a test compound to reduce the measured levels of IGF1R phosphorylation after IGF1 stimulation in R cells. R^+ cells are derived by transfection of R^− mouse fibroblast cells with human IGF1R. R^+ cells are routinely cultured in DMEM growth medium (Gibco BRL, 41966) containing 2 mM L-Glutamine (Invitrogen Code no. 25030-024) and 10% (v/v) foetal bovine serum (FBS)) in a 5% CO2 air incubator at 37° C.
To undertake the assay, the R^+ cells are seeded at 5×10^3 cells/well in DMEM plus 1% foetal calf serum, 1% L-glutamine in 96-well black Packard View plates (PerkinElmer 6005182) and incubated at 37° C. (+5% CO2) in a humidified incubator. […]
Following the compound treatment, the R^+ cells are stimulated with a final concentration of 30 nM IGF1 (Gropep IM001) for 20 minutes at 37° C. […] Additionally, in-house antibodies raised against phospho IGF1R were also used at a suitable titre determined for each batch. […]
The Green Fluorescent phospho IGF1R-associated signal in each well was measured using an Acumen Explorer HTS Reader (TTP Labtech Ltd., Cambridge). Phospho IGF1R-associated fluorescence emission can be detected at 530 nm following excitation at 488 nm. […] These fluorescent objects can be quantified and provide a measure of the phospho IGF1R levels in cells. […]

[1] = LogD (shake flask method); type: physicochemical
Description: LogD can be measured using the generic shake flask method as described in Lars-Goran Danielsson, Yu Hui Zhang, Trends in Analytical Chemistry, 1996, 15(4), 188-196, and also by the method described in B. Law and D. Temesi, J. Chromatogr. B 748 (2000), 21-30.

[2] = Solubility in 0.1 M phosphate buffer pH 7.4; type: physicochemical; conditions: pH 7.4, 24 h
Method: Solubility values are determined by agitation of compounds in 0.1 M phosphate buffer at pH 7.4 for 24 h at 25° C. The supernatant is separated from undissolved material by double centrifugation and subsequently analyzed and quantified against a standard of known concentration in DMSO using generic HPLC-UV methodology coupled with mass spectral peak identification (J. Med. Chem., 2006, 49(23), 6672-6682).

[3] = target: T2, human cytochrome P450 (CYP) 2C19 (Homo sapiens, UniProt P33261); assay: Cytochrome P450 Inhibition Assay 2C19; type: in vitro ADME; conditions: test compound final concentrations 0.1-10 μM; substrate MFC; read-out: Ic50 2C19
T2 construct: made in house; host or cells: yeast cell lines (microsomal fractions)
T2 sequence (P33261 whole entry): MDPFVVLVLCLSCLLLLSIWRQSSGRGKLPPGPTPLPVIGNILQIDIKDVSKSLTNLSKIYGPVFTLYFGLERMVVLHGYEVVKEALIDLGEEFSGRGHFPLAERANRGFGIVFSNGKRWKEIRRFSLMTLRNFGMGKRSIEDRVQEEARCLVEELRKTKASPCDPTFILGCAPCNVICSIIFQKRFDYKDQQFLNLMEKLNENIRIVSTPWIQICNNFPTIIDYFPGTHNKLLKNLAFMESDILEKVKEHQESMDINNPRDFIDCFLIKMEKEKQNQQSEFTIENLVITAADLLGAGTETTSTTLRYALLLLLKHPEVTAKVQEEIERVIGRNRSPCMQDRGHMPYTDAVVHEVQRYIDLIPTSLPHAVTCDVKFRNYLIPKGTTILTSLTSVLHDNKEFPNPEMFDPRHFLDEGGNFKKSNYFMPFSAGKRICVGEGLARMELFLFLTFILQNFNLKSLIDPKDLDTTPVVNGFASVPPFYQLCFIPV
Method: The inhibitory potential (IC50) of test compounds against 5 human cytochrome P450 (CYP) isoforms (1A2, 2C9, 2C19, 3A4 and 2D6) was assessed using an automated fluorescent end point in vitro assay modified from Crespi (Crespi and Stresser, 2000). Microsomal subcellular fractions prepared from Yeast cell lines expressing each human CYP isoform were used as an enzyme source in this assay. The activity of the 5 major human CYPs was determined from the biotransformation of a number of coumarin substrates to fluorescent metabolites, in the presence of NADPH. […] Stock solutions of each CYP, with its respective substrate, were prepared in phosphate buffer pH7.4 (see Table 1) and 178 μl was added to the well of a black solid, flat bottom, 300 μl 96 well is microtitre plate (Corning Costar). […] After pre-incubating at 37° C. for 5 min the reactions were started with addition of NADPH (20 μl, concentration shown in Table 1). The final solvent content in each incubation was <=2% (1% from the test compound and a maximum of 1% from the substrate). The appropriate solvent controls and substrate blanks were included in each experiment to assess control activity and identify any inherent fluorescence due to the test compounds. In addition, known inhibitors of each CYP were included as positive controls (see Table 3 for inhibitor concentrations and expected IC50 ranges). The reactions were stopped at defined timepoints (see Table 1) by quenching with 100 μl of solvent (acetonitrile:0.5M Tris buffer 80:20 v/v). The plates were read on a fluorimeter (Spectrafluor Plus) at the appropriate excitation and emission wavelengths (listed in Table 2) and the percent activity, corrected for control, was plotted against the test compound concentration.

| Structure (SMILES) | IC50 (human IGF1R) [nM] | logD [1] | solubility at 24 h ([2]; phosphate buffer, 25 °C, pH 7.4, aqueous buffer, thermodynamic from solid) [µM] | IC50 [3] [nM] | solubility at 24 h ([2]; 25° C.) [µM] |
| --- | --- | --- | --- | --- | --- |
| CCc1cc(Nc2cc(OC)nc(N3CCC[C@H]3c3cc(-c4ncccn4)no3)n2)n[nH]1 [Comparative Example A, (S)-6-Methoxy-2-{2-[3-(pyrimid-2-yl)isoxazol-5-yl]pyrrolidin-1-yl}-4-(5-ethyl-1H-pyrazol-3-ylamino)pyrimidine] | 2.68 | 3.43 | 9.24 (≈ 4.01 µg/mL) | > 10000 |  |
| COc1cc(Nc2cc(C)n[nH]2)nc(N2CCC[C@H]2c2cc(-c3ncccn3)no2)n1 [Example 1, (S)-6-Methoxy-2-{2-[3-(pyrimid-2-yl)isoxazol-5-yl]pyrrolidin-1-yl}-4-(5-methyl-1H-pyrazol-3-ylamino)pyrimidine] | 4.29 | 3.12 |  | > 10000 | 160 (≈ 67.1 µg/mL) |
